Assay results: patent publication EP4129284B1, “SERTACONAZOL FOR PROVIDING A SPORISTATIC AND/OR SPORICIDAL EFFECT” (Dr. Pfleger Arzneimittel GmbH, priority 2021, dated 2023)

How the values were obtained:
Assay in all cases: Full skin model infected with spores, treatment, histology (PAS-staining)
T. rubrum = type: cell-based, Trichophyton rubrum; conditions: for spread of T. rubrum: up to 72 h after application, ciclopiroxolamin 400 µg/mL, terbinafin 0.050 µg/mL, histology vs infected untreated control; for outgrowth of the spores of T. rubrum: sertaconazol 0.025 µg/mL, Fig. 5
Description: (§1) For an application in vivo, there is the additional requirement for the antimycotic substances to evoke a targeted antimycotic activity in the presence of human cells. Thus, 3D-cell-cultures such as full skin models are used to simulate the in vivo conditions. Such full skin models are for example described in Reddersen K, Wiegand C, Elsner P, Hipler UC. Three-dimensional human skin model infected with Staphylococcus aureus as a tool for evaluation of bioactivity and biocompatibility of antiseptics. Int J Antimicrob Agents. 2019; 54(3):283-291; Wiegand C, Fink S, Beier O, Horn K, Pfuch A, Schimanski A, Grünler B, Hipler UC, Elsner P. Dose- and Time-Dependent Cellular Effects of Cold Atmospheric Pressure Plasma Evaluated in 3D Skin Models. Skin Pharmacol Physiol. 2016;29(5):257-265. Particularly, such full skin models are made of a collagen matrix, which is colonized with primary human fibroblasts, and a fully differentiated epidermis made of primary human keratinocytes. For the experiments, the model is infected in vitro with spores, such that a determination of the sporistatic or sporicidal influence of the substances to be examined at in vivo relevant conditions is allowed. Compared to a 2D-model, the 3D full skin model has the advantage that the cells are in their natural three-dimensional surrounding and show a corresponding behaviour. Such, the antimycotic and sporistatic or sporicidal effects can be examined in situ and in the presence of human cells.
The spore suspensions and the solutions of sertaconazol, ciclopiroxolamin and terbinafin were prepared as in Example 1, wherein the respective test concentrations were obtained by diluting these solutions in ultrapure water (WFI; Fresenius Kabi) instead of SGB (Merck). Full skin models were produced as previously described [Reddersen K, Wiegand C, Elsner P, Hipler UC. Three-dimensional human skin model infected with Staphylococcus aureus as a tool for evaluation of bioactivity and biocompatibility of antiseptics. Int J Antimicrob Agents. 2019; 54(3):283-291; Wiegand C, Fink S, Beier O, Horn K, Pfuch A, Schimanski A, Grünler B, Hipler UC, Elsner P. Dose- and Time-Dependent Cellular Effects of Cold Atmospheric Pressure Plasma Evaluated in 3D Skin Models. Skin Pharmacol Physiol. 2016;29(5):257-265].Particularly, normal human dermal fibroblasts (NHDF; Lot 1060702.1, Promocell) and normal human epidermal keratinocytes (NHEK; Lot 9100102, Promocell) were used. Fibroblasts were cultivated in Dulbecco's modified eagle medium (DMEM; Lot MC09049P, Amimed), with 2% foetal calf serum (Lot P160509; PAN), 5 ng/mL hFGF (Lot 0329586; novoprotein) and 5 µg/ml Insulin (Lot H07443P, AMIMED) at 37°C and a 5% CO2 atmosphere. […]

S. brevicaulis = type: cell-based, Scopulariopsis brevicaulis; conditions: 48 h and 72 h, sertaconazol 100, ciclopiroxolamin 400, terbinafin 100 µg/mL, Fig. 6, stated as 'the same applies' as for E. floccosum
Description: as §1
(§2) The spore suspensions and the solutions of sertaconazol, ciclopiroxolamin and terbinafin were prepared as in Example 1, wherein the respective test concentrations were obtained by diluting these solutions in ultrapure water (WFI; Fresenius Kabi) instead of SGB (Merck). Full skin models were produced as previously described [Reddersen K, Wiegand C, Elsner P, Hipler UC. […] 2019; 54(3):283-291; Wiegand C, Fink S, Beier O, Horn K, Pfuch A, Schimanski A, Grünler B, Hipler UC, Elsner P. Dose- and Time-Dependent Cellular Effects of Cold Atmospheric Pressure Plasma Evaluated in 3D Skin Models. […]

C. albicans = type: cell-based, Candida albicans; conditions: over 72 h, sertaconazol 800, ciclopiroxolamin 400, terbinafin 1600 µg/mL, Fig. 7
Description: as §1, §2

Cc1cc(C2CCCCC2)n(O)c(=O)c1 [Ciclopiroxolamin, ciclopiroxolamin]
spread of T. rubrum (T. rubrum): reduce the spread of T. rubrum but could not inhibit it | outgrowth of S. brevicaulis (S. brevicaulis): only reduced | outgrowth of C. albicans (C. albicans): much lower effect

Clc1ccc(C(Cn2ccnc2)OCc2csc3c(Cl)cccc23)c(Cl)c1 (stereo not shown) [Sertaconazol, sertaconazol]
outgrowth of the spores of T. rubrum (T. rubrum; 48 h treatment): inhibit the outgrowth | outgrowth of the spores of T. rubrum (T. rubrum; 72 h treatment): reduce the outgrowth | outgrowth of S. brevicaulis (S. brevicaulis): inhibited | outgrowth of C. albicans (C. albicans): clearly reduced

CN(C/C=C/C#CC(C)(C)C)Cc1cccc2ccccc12 [Terbinafin, terbinafin]
spread of T. rubrum (T. rubrum): did not have any effect | outgrowth of S. brevicaulis (S. brevicaulis): only reduced | outgrowth of C. albicans (C. albicans): much lower effect
